From patent publication EP4800018A1, “PAN-KRAS INHIBITOR AND USE THEREOF IN MEDICINES” (Betta Pharmaceuticals Co., Ltd., priority 2023, dated 2025)

Columns and labels:
[1] = test system: KRAS-G12V mutant tumor cells SW620; experiment: Cell Proliferation Inhibition Assay (SW620), Cell-titer GLO, 96 h; type: cell-based; conditions: Homo sapiens, SW-620, 96 h, SW620 cells, 96 h incubation, Cell-titer GLO; read-out: SW620(G12V)
Experimental: (§1) KRAS-G12V mutant tumor cells SW620 were seeded in low-attachment 96-well plates at a cell density of 1×10^3 cells/well and cultured overnight in a cell culture incubator. After the cells adhered, the test compounds were added to the 96-well plates at final concentrations of 10000, 2000, 400, 80, 16, 3.2, 0.64, 0.13, 0.03, 0 nM (final concentration of DMSO was 0.5% for all). After incubation at 37°C for 96 h, 50 µL of Cell-titer GLO working solution was added to each well, mixed by shaking, incubated at room temperature for 10 min, and the Luminescence value was read on a multi-function microplate reader. The luminescence data were calculated and converted into inhibition percent. The inhibition percent of cell proliferation was calculated according to the following formula: Inhibition Percent = (MaxValue−MeasuredValue)/(MaxValue−Blank) × 100% [formula]
("Max Value" comes from the 0.5% DMSO control well, "Blank" comes from the blank control well, and "Measured Value" comes from the compound-treated well).
Curve fitting was performed using GraphPad Prism software to obtain IC50 values, see Table 1.

[2] = test system: KRAS-G12D mutant tumor cells AGS; experiment: Cell Proliferation Inhibition Assay (AGS), Cell-titer GLO, 96 h; type: cell-based; conditions: Homo sapiens, AGS, 96 h, AGS cells, 96 h incubation, Cell-titer GLO; read-out: AGS(G12D)
Experimental: as §1, with “KRAS-G12D” for “KRAS-G12V”, “AGS” for “SW620”, “After the cells adhered, the test compounds were added to the 96-well plates at final concentrations of 10000, 2000, 400, 80, 16, 3.2, 0.64, 0.13, 0.03, 0 nM (final concentration of DMSO was 0.5% for all).” left out, “[formula] […] Curve fitting was performed using GraphPad Prism software to obtain IC50 values, see Table 1.” for “[formula]”

Row | IC50 [1] [nM] | IC50 [2] [nM] | Compound
1 | 0.14 | 0.36 | C[C@@H]1[C@H](C)[C@H]1C(=O)N[C@H]1Cc2nc(cs2)-c2ccc3c(c2)c(c2n3CCCO[C@@H](C)c3ncc(N4C[C@@H](C)O[C@@H](C)C4)cc3-2)CC(C)(C)COC(=O)[C@@H]2CCCN(N2)C1=O [Example 166, (1r,2R,3S)-N-((1^5S,6^3S,4S,Z)-1^2-((2S,6R)-2,6-dimethylmorpholino)-1^5,10,10-trimethyl-5,7-dioxo-1^8,1^9,6^1,6^2,6^3,6^4,6^5,6^6-octahydro-1^5H,1^7H-8-oxa-1(13,15)-pyrido[3',2':7,8][1,5]oxazonino[5,6-a]indola-2(4,2)-thiazola-6(1,3)-pyridazinacycloundecaphane-4-yl)-2,3-dimethylcyclopropane-1-ca rboxamide]
2 | 1.4 | 3 | C[C@@H]1[C@H](C)[C@H]1C(=O)N[C@H]1Cc2nc(cs2)-c2ccc3c(c2)c(c2n3CCCO[C@@H](C)c3ncc(CN4CCOCC4)cc3-2)CC(C)(C)COC(=O)[C@@H]2CCCN(N2)C1=O [Example 194, (1r,2R,3S)-2,3-dimethyl-N-((1^5S,6^3S,4S,Z)-1^5,10,10-trimethyl-1^2-(morpholinomethyl)-5,7-dioxo-1^8,1^9,6^1,6^2,6^3,6^4,6^5,6^6-octahydro-1^5H,1^7H-8-oxa-1(13,15)-pyrido[3',2':7,8][1,5]oxazonino[5,6-a]indola-2(4,2)-thiazola-6(1,3)-pyridazinacycloundecaphane-4-yl)cyclopropane-1-carboxamide]
3 | 0.06 | 0.6 | CC1OCCCn2c(c3c4cc(ccc42)-c2csc(n2)CC(NC(=O)C2C(C)C2C)C(=O)N2NC(C(=O)OCC(C)(C)C3)C3CC2C3)-c2cc(N3CCN(C)CC3)nnc21 [Example 195, (1r,2R,3S)-2,3-dimethyl-N-((1^5S,6^4S,4S,Z)-1^5,10,10-trimethyl-1^2-(4-methylpiperazin-1-yl)-5,7-dioxo-1^8,1^9-dihydro-1^5H,1^7H-8-oxa-6^2,6^3-diaza-1(13,15)-pyridazino[4',3':7,8][1,5]oxazonino[5,6-a]indola-2(4,2)-thiazola-6(2,4)-bicyclo[3.1.1]heptanacycloundecaphane-4-yl)cyclopropane-1-car boxamide]

Continued, compound first:

Row | Compound | IC50 [1] [nM] | IC50 [2] [nM]
4 | C[C@@H]1OCCCn2c(c3c4cc(ccc42)-c2csc(n2)C[C@H](NC(=O)[C@H]2C[C@@H]2C(F)F)C(=O)N2CCC[C@H](N2)C(=O)OCC(C)(C)C3)-c2cc(N3CCOC(C)(C)C3)cnc21 [Example 153, (1S,2S)-2-(difluoromethyl)-N-((1^5S,6^3S,4S,Z)-1^2-(2,2-dimethylmorpholino)-1^5,10,10-trimethyl-5 ,7-dioxo-1^8,1^9,6^1,6^2,6^3,6^4,6^5,6^6-octahydro-1^5H,^17H-8-oxa-1(13,15)-pyrido[3',2':7,8][1,5]oxazonino[5,6-a]indola-2(4,2)-thiazola-6(1,3)-pyridazinacycloundecaphane-4-yl)cyclopropane-1-carboxamide] | 0.28 | 1.33
5 | C[C@@H]1OCCCn2c(c3c4cc(ccc42)-c2csc(n2)C[C@H](NC(=O)[C@H]2C[C@@H]2C(F)F)C(=O)N2CCC[C@H](N2)C(=O)OCC(C)(C)C3)-c2cc(N3C[C@@H]4C[C@H]3CN4C)cnc21 [Example 155, (1S,2S)-2-(difluoromethyl)-N-((1^5S,6^3S,4S,Z)-1^5,10,10-trimethyl-1^2-((1S,4S)-5-methyl-2,5-diazabicyclo[2.2.1]heptan-2-yl)-5,7-dioxo-1^8,1^9,6^1,6^26^3,6^4,6^5,6^6-octahydro-1^5H,1^7H-8-oxa-1(13,15)-pyrido[3',2':7,8][1,5]oxazonino[5,6-a]indola-2(4,2)-thiazola-6(1,3)-pyridazinacycloundecaphane-4-yl)cyclopropane-1-carboxamide] | 0.62 | 1.38
6 | C[C@@H]1OCCCn2c(c3c4cc(ccc42)-c2csc(n2)C[C@H](NC(=O)[C@H]2C[C@@H]2C(F)F)C(=O)N2CCC[C@H](N2)C(=O)OCC(C)(C)C3)-c2cc(OC[C@@H]3CCCCN3C)cnc21 [Example 156, (1S,2S)-2-(difluoromethyl)-N-((1^5S,6^3S,4S,Z)-1^5,10,10-trimethyl-1^2-(((S)-1-methylpiperidin-2-yl)methoxy)-5,7-dioxo-1^8,1^9,6^1,6^26^36^4,6^5,6^6-octahydro-1^5H,1^7H-8-oxa-1(13,15)-pyrido[3',2':7,8][1,5]oxazonino[5,6-a]indola-2(4,2)-thiazola-6(1,3)-pyridazinacycloundecaphane-4-yl)cyclopropane-1-carboxamide] | – | 8.27
7 | C[C@@H]1OCCCn2c(c3c4cc(ccc42)-c2csc(n2)C[C@H](NC(=O)[C@H]2C[C@@H]2C(F)F)C(=O)N2CCC[C@H](N2)C(=O)OCC(C)(C)C3)-c2cc(OCCN3CCOCC3)cnc21 [Example 157, (1S,2S)-2-(difluoromethyl)-N-((1^5S,6^3S,4S,Z)-1^5,10,10-trimethyl-1^2-(2-morpholinoethoxy)-5,7-dioxo-1^8,1^9,6^1,6^2,6^3,6^4,6^5,6^6-octahydro-1^5H,1^7H-8-oxa-1(13,15)-pyrido[3',2':7,8][1,5]oxazonino[5,6-a]indola-2(4,2)-thiazola-6(1,3)-pyridazinacycloundecaphane-4-yl)cyclopropane-1-carboxamide] | 0.58 | 3.31
8 | C[C@@H]1OCCCn2c(c3c4cc(ccc42)-c2csc(n2)C[C@H](NC(=O)[C@H]2C[C@@H]2C(F)F)C(=O)N2CCC[C@H](N2)C(=O)OCC(C)(C)C3)-c2cc(N(C)C3CCN(C)C3)cnc21 (stereo partly drawn) [Example 160, (1S,2S)-2-(difluoromethyl)-N-((1^5S,6^3S,4S,Z)-1^5,10,10-trimethyl-1^2-(methyl(1-methylpyrrolidin-3-yl)amino)-5,7-dioxo-1^8,1^9,6^1,6^2,6^3,6^4,6^5,6^6-octahydro-1^5H,1^7H-8-oxa-1(13,15)-pyrido[3',2':7,8][1,5]oxazonino[5,6-a]indola-2(4,2)-thiazola-6(1,3)-pyridazinacycloundecaphane-4-yl)cycloprop ane-1-carboxamide] | 0.98 | 2.25
9 | CCN1CCN(c2cnc3c(c2)-c2c4c5cc(ccc5n2CCCOC3C)-c2csc(n2)CC(NC(=O)C2C3COCC32)C(=O)N2CCCC(N2)C(=O)OCC(C)(C)C4)CC1 [Example 162, (3R,4r,5S)-N-((1^5S,6^3S,4S,Z)-1^2-(4-ethylpiperazin-1-yl)-1^5,10,10-trimethyl-5,7-dioxo-1^8,1^9,6^1,6^2 ,6^3,6^4,6^5,6^6-octahydro-1^5H,1^7H-8-oxa-1(13,15)-pyrido[3',2':7,8][1,5]oxazonino[5,6-a]indola-2(4, 2)-thiazola-6(1,3)-pyridazinacycloundecaphane-4-yl)tetrahydro-2H-pyran-4-carboxamide] | – | 1.08
10 | C[C@@H]1OCCCn2c(c3c4cc(ccc42)-c2csc(n2)C[C@H](NC(=O)[C@H]2C[C@@H]2C(F)F)C(=O)N2CCC[C@H](N2)C(=O)OCC(C)(C)C3)-c2cc(N3C[C@@H]4CCN(C)[C@@H]4C3)cnc21 [Example 163, (1S,2S)-2-(difluoromethyl)-N-((1^5S,6^3S,4S,Z)-1^5,10,10-trimethyl-1^2-((3aS,6aS)-1-methylhexahydropyrrolo[3,4-b]pyrrol-5(1H)-yl)-5,7-dioxo-1^8,1^9,6^1,6^2,6^3,6^4,6^5,6^6-octahydro-1^5H,1^7H-8-oxa-1(1 3,15)-pyrido[3',2':7,8][1,5]oxazonino[5,6-a]indola-2(4,2)-thiazola-6(1,3)-pyridazinacycloundecaphane-4-yl)cyclopropane-1-carboxamide] | 0.2 | 1.44
